The record followed here is patent US11564923B2, “Compounds and pharmaceutical compositions thereof for the treatment of inflammatory disorders” (Galapagos NV, priority 2017, dated 2023).

Test [1] addresses T1, Recombinant human JAK2 (catalytic domain, amino acids 808-1132) (Homo sapiens, UniProt O60674).
T1 construct: catalytic domain, amino acids 808-1132
Description: JAK2 inhibition assay. Further: 0.7 µM ATP. The conditions noted are these: read-out: JAK2 potency IC50. Format: biochemical. The protocol:
After 60 min at room temperature, reactions are stopped by adding 20 μL/well of detection mixture (1× detection buffer (Perkin Elmer, catalog number CR97-100) with 0.5 nM Europium-anti-phosphotyrosine (PT66) (Perkin Elmer, catalog number AD0068/AD0069) and 10 mM EDTA). […] Kinase activity is calculated by subtracting the ratio obtained in the presence of a positive control inhibitor (1 μM staurosporine) from the ratio obtained in the presence of vehicle. The ability of a test compound to inhibit this activity (or percentage inhibition) is determined as:
(§1) [formula] wherein Fluorescent ratio test compound=ratio RFU665/RFU615*1000 determined for sample with test compound present Fluorescent ratio control=ratio RFU665/RFU615*1000 determined for sample with positive control inhibitor Fluorescent ratio vehicle=ratio RFU665/RFU615*1000 determined in the presence of vehicle
Dose dilution series are prepared for compound enabling the testing of dose-response effects in the JAK2 assay and the calculation of the IC50 for the compound. Each compound is routinely tested at concentration of 20 μM followed by a 1/5 serial dilution, 10 points in a final concentration of 1% DMSO. […] The data are expressed as the average IC50 from the assays.

Test [2] addresses T2, Recombinant human TYK2 catalytic domain (amino acids 871-1187) (Homo sapiens, UniProt P29597).
T2 construct: catalytic domain (amino acids 871-1187)
T2 sequence (P29597 871-1187): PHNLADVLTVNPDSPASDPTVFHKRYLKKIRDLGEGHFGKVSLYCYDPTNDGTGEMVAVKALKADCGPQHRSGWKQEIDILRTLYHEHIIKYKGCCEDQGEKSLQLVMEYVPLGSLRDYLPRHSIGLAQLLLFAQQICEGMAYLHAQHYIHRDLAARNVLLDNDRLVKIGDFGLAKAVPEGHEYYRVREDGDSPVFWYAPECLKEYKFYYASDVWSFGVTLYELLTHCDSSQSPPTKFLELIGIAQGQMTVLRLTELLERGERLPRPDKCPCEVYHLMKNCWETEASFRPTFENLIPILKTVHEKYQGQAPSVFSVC
Put plainly: TYK2 radioactive assay polyGT substrate. Further: 0.1 µM ATP. The test is classed as biochemical. The method, boiled down: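 Reaction at 30° C. for 120 min, ended with 150 mM phosphoric acid, washed, counted; percent inhibition scaled between vehicle and 10 μM staurosporine cpm.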

Test [3] addresses Recombinant human JAK3 catalytic domain (amino acids 781-1124) (Homo sapiens, UniProt P52333). Put plainly: JAK3 inhibition assay. The test is classed as biochemical. The protocol:
After 45 min at 30° C., reactions are stopped by adding 25 μL/well of 150 mM phosphoric acid. […] Plates are washed 6 times with 300 μL per well of a 75 mM phosphoric acid solution and the bottom of the plates is sealed. […] Kinase activity is calculated by subtracting counts per min (cpm) obtained in the presence of a positive control inhibitor (10 μM staurosporine) from cpm obtained in the presence of vehicle. The ability of a test compound to inhibit this activity (or percentage inhibition) is determined as: […]
cpm test compound=cpm determined for sample with test compound present cpm control=cpm determined for sample with positive control inhibitor cpm vehicle=cpm determined in the presence of vehicle
Dose dilution series were prepared for the compounds enabling the testing of dose-response effects in the JAK3 assay and the calculation of the IC50 for each compound. Each compound is routinely tested at concentration of 20 μM followed by a 1/5 serial dilution, 10 points in a final concentration of 1% DMSO.

The target of test [4] is T3, Recombinant human JAK1 (catalytic domain, amino acids 866-1154) (Homo sapiens, UniProt P23458).
T3 construct: catalytic domain, amino acids 866-1154
Put plainly: JAK1 inhibition assay. Format: biochemical. The conditions noted are these: read-out: JAK1 potency IC50. The procedure: After 60 min at room temperature, reactions are stopped by adding 20 μL/well of detection mixture (1× detection buffer (Perkin Elmer, catalog number CR97-100), 0.5 nM Europium-anti-phosphotyrosine (PT66) (Perkin Elmer, catalog number AD0068/AD0069), 10 mM EDTA). […] Kinase activity is calculated by subtracting the ratio obtained in the presence of a positive control inhibitor (1 μM staurosporine) from the ratio obtained in the presence of vehicle. The ability of a test compound to inhibit this activity (or percentage inhibition) is determined as:
as §1
Dose dilution series were prepared for the compounds enabling the testing of dose-response effects in the JAK1 assay and the calculation of the IC50 for the compound. Each compound is routinely tested at concentration of 20 μM followed by a 1/5 serial dilution, 10 points in a final concentration of 1% DMSO. […] The data are expressed as the average IC50 from the assays.

Test [5] relates to IFNα activation of STAT1 in PBMC. Put plainly: IFNα activation of STAT1 in PBMC. As to conditions: Homo sapiens; IFNα activation of STAT1 in PBMC; average IC50; read-out: IFNα signaling inhibitory potency IC50. Format: cell-based. The method, boiled down: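 Human PBMC, with red cells lysed by NH4Cl, were pre-treated with compound for 30 min at 37 °C and 5% CO2. They were then stimulated for 30 min with recombinant human IFNα at 5 ng/mL final.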

T1 sequence (O60674 808-1132): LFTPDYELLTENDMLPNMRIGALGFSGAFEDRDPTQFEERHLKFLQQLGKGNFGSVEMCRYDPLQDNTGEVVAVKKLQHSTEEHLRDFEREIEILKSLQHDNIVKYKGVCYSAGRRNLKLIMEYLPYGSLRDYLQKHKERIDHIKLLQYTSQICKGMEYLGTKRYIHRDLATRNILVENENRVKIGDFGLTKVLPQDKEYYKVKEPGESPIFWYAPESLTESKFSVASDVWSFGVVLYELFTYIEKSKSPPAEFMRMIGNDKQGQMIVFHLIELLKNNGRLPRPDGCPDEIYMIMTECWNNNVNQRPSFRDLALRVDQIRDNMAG
T3 sequence (P23458 866-1154): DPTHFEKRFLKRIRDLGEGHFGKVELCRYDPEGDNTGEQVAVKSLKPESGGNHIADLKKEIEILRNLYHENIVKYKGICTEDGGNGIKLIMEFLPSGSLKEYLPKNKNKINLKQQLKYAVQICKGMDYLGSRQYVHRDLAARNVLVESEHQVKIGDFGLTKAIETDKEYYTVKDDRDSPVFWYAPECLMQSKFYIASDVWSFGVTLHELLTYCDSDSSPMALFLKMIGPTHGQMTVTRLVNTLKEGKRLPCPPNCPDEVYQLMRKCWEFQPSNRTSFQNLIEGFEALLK
Chain of Recombinant human JAK3 catalytic domain (amino acids 781-1124) (P52333 781-1124): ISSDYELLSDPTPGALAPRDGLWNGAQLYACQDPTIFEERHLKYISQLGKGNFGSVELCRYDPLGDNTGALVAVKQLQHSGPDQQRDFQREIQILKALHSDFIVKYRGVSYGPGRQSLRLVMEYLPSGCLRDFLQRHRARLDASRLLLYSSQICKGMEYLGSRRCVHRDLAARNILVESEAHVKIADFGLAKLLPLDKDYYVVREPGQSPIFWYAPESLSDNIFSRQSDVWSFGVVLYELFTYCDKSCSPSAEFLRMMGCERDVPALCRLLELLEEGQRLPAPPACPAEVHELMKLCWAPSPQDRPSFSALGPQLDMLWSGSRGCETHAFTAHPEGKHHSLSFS

The term IC50 denotes the point on the concentration scale where inhibition reaches its midpoint. In the case of `Cc1cc(C#N)ncc1Nc1cc(Nc2ccc(C(=O)N(C)C)nn2)c2ncn(C)c2n1` [Compound 76, 6-[[5-[(6-cyano-4-methyl-3-pyridyl)amino]-3-methyl-imidazo[4,5-b]pyridin-7-yl]amino]-N,N-dimethyl-pyridazine-3-carboxamide], the half-maximal inhibitory concentration (IC50) was found to be 19.9 nM in test [1], 6.71 nM in test [2], 579 nM in test [3] and 200 nM in test [4].
The like results for `CCNC(=O)c1ccc(Nc2cc(Oc3cnc(C#N)cc3C)nc3c2ncn3C)nc1C` [Compound 78, 6-[[5-[(6-cyano-4-methyl-3-pyridyl)oxy]-3-methyl-imidazo[4,5-b]pyridin-7-yl]amino]-N-ethyl-2-methyl-pyridine-3-carboxamide] were, in that order, 31.6 nM, 9.69 nM, 737 nM and 60.2 nM.
The like results for `Cc1cc(C#N)ncc1Oc1cc(Nc2ccc(C(N(C)C)C(F)(F)F)cn2)c2ncn(C)c2n1` (stereo not shown) [Compound 79] were, in that order, 5.58 nM, 3.57 nM, 573 nM and 18.5 nM.
The like results for `CC(Nc1cc(Nc2cc(N)ncn2)c2ncn(C)c2n1)C1CCC1` (stereo not shown) [Compound 94, N7-(6-aminopyrimidin-4-yl)-N5-(1-cyclobutylethyl)-3-methyl-imidazo[4,5-b]pyridine-5,7-diamine] were, in that order, 39.7 nM, 30.7 nM, 87.1 nM and 217 nM.
For the compound `Cn1cnc2c(Nc3cc(N)ncn3)cc(NC(C3CC3)C3CC3)nc21` [Compound 95, N7-(6-aminopyrimidin-4-yl)-N5-(dicyclopropylmethyl)-3-methyl-imidazo[4,5-b]pyridine-5,7-diamine], the IC50 in test [1] is 38 nM; in test [2], 26.3 nM; in test [3], 177 nM; in test [4] it was 250 nM.
As to `CC(C)[C@@H](Nc1cc(Nc2ccc(C(=O)N(C)C)cn2)c2ncn(C)c2n1)C(F)(F)F` [Compound 97, N,N-dimethyl-6-[[3-methyl-5-[[(1R)-2-methyl-1-(trifluoromethyl)propyl]amino]imidazo[4,5-b]pyridin-7-yl]amino]pyridine-3-carboxamide], the IC50 in test [1] is 6.29 nM; in test [2] it was 3.08 nM; in test [3] it was 36.4 nM; in test [4], 21.8 nM.
The like results for `Cc1cc(C#N)ncc1Oc1cc(Nc2ccc(C(=O)NCCN(C)C)cn2)c2ncn(C)c2n1` [Compound 99, 6-[[5-[(6-cyano-4-methyl-3-pyridyl)oxy]-3-methyl-imidazo[4,5-b]pyridin-7-yl]amino]-N-(2-dimethylaminoethyl)pyridine-3-carboxamide] were, in that order, 51.1 nM, 17.8 nM, 916 nM and 111 nM.
The like results for `COCCCNC(=O)c1ccc(Nc2cc(Oc3cnc(C#N)cc3C)nc3c2ncn3C)nc1` [Compound 100, 6-[[5-[(6-cyano-4-methyl-3-pyridyl)oxy]-3-methyl-imidazo[4,5-b]pyridin-7-yl]amino]-N-(3-methoxypropyl)pyridine-3-carboxamide] were, in that order, 39.4 nM, 8.06 nM, 912 nM and 63.5 nM.
For `Cc1cc(C#N)ncc1Oc1cc(Nc2ccc(C(=O)N3CC(C(C)(C)O)C3)nn2)c2ncn(C)c2n1` [Compound 111, 5-[7-[[6-[3-(1-hydroxy-1-methyl-ethyl)azetidine-1-carbonyl]pyridazin-3-yl]amino]-3-methyl-imidazo[4,5-b]pyridin-5-yl]oxy-4-methyl-pyridine-2-carbonitrile], the IC50 in test [1] is 29.7 nM; in test [2], 5.53 nM; in test [3] it was 1050 nM; in test [5], 123 nM; in test [4], 310 nM.
For `Cc1cc(C#N)ncc1Oc1cc(Nc2ccc(N3CCC(N(C)C)CC3)cn2)c2ncn(C)c2n1` [Compound 181, 5-[7-[[5-[4-(dimethylamino)-1-piperidyl]-2-pyridyl]amino]-3-methyl-imidazo[4,5-b]pyridin-5-yl]oxy-4-methyl-pyridine-2-carbonitrile], the 50% inhibitory concentration (IC50) turned out to be 36.9 nM in test [1], 7.08 nM in test [2], 396 nM in test [3] and 151 nM in test [4].
For `Cc1cc(C#N)ncc1Oc1cc(Nc2ccc(N3CCC(N(C)C)C3)cn2)c2ncn(C)c2n1` (stereo not shown) [Compound 182, 5-[7-[[5-[3-(dimethylamino)pyrrolidin-1-yl]-2-pyridyl]amino]-3-methyl-imidazo[4,5-b]pyridin-5-yl]oxy-4-methyl-pyridine-2-carbonitrile], the half-maximal inhibitory concentration (IC50) in test [1] was 76.4 nM; in test [2], 17.2 nM; in test [3], 721 nM; in test [4], 165 nM.
The like results for `COCCN(C)c1ccc(Nc2cc(Oc3cnc(C#N)cc3C)nc3c2ncn3C)nc1` [Compound 183, 5-[7-[[5-[2-methoxyethyl(methyl)amino]-2-pyridyl]amino]-3-methyl-imidazo[4,5-b]pyridin-5-yl]oxy-4-methyl-pyridine-2-carbonitrile] were, in that order, 41.2 nM, 12.9 nM, 561 nM and 95.4 nM.
Turning to `Cc1cc(C#N)ncc1Oc1cc(Nc2ccc(N3CCC(CO)CC3)cn2)c2ncn(C)c2n1` [Compound 184, 5-[7-[[5-[4-(hydroxymethyl)-1-piperidyl]-2-pyridyl]amino]-3-methyl-imidazo[4,5-b]pyridin-5-yl]oxy-4-methyl-pyridine-2-carbonitrile], the 50% inhibitory concentration (IC50) in test [1] worked out at 22.1 nM; in test [2], 6.42 nM; in test [3], 487 nM; in test [4] it was 59 nM.
Take `Cc1cc(C#N)ncc1Oc1cc(Nc2ccc(N(C)C)cn2)c2ncn(C)c2n1` [Compound 185, 5-[7-[[5-(dimethylamino)-2-pyridyl]amino]-3-methyl-imidazo[4,5-b]pyridin-5-yl]oxy-4-methyl-pyridine-2-carbonitrile]: the concentration for half-maximal inhibition (IC50) in test [1] is 41.4 nM; in test [2] it was 17 nM; in test [3], 871 nM; in test [4], 93.6 nM.
In the case of `Cc1cc(C#N)ncc1N(CC(C)O)c1cc(Nc2cc(N)ncn2)c2ncn(C)c2n1` (stereo not shown) [Cpd 187, 5-[[7-[(6-aminopyrimidin-4-yl)amino]-3-methyl-imidazo[4,5-b]pyridin-5-yl]-(2-hydroxypropyl)amino]-4-methyl-pyridine-2-carbonitrile], the half-inhibitory concentration (IC50) turned out to be 42.3 nM in test [1], 6.54 nM in test [2], 660 nM in test [3] and 127 nM in test [4].
